pIC50: −log10 of the molar value.
Experiments:
HTT mRNA = assay: Splicing RT-qPCR assay, HTT canonical (CJ) and alternative (AJ) junction mRNA; format: cell-based; conditions: Homo sapiens, A673 or K562 cells, 24 hours treatment
Method in brief: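 Compound-treated A673 or K562 cells (11-point 3-fold dilution, top dose 10 uM final, DMSO ≤0.25%) were incubated for 24 h at 37° C. Lysates underwent one-step RT-qPCR for canonical and alternative-exon junction isoforms. Normalization used PPIA for A673 and GAPDH or GUSB for K562.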

[1] = test system: HiBiT-tagged Target C protein in K562 cells; assay: HiBiT protein abundance assay, Target C; format: cell-based, human; conditions: HiBiT-modified K562 cells, 24 hours, luminescence
Method in brief: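 K562 lines with the endogenous target HiBiT-tagged, seeded in IMDM+1% FBS, got a 10-point 3-fold dilution series (top final 10 μM, DMSO ≤0.25%) for 24 hours at 37° C. Lytic LgBiT luminescence was normalized against unmodified-K562 and DMSO-only controls, and IC50 was interpolated at 50% from a four-parameter logistic fit.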

Cc1cn2cc(-c3nc4cnn(C5CCNCC5)c(=O)c4s3)nc(C)c2n1 [Compound 812, 2-(2,8-dimethylimidazo[1,2-a]pyrazin-6-yl)-6-(piperidin-4-yl)thiazolo[4,5-d]pyridazin-7(6H)-one]
pIC50 (HTT mRNA; decrease in CJ mRNA): < 5.00 | AC50 (HTT mRNA; increase in AJ mRNA): > 10 µM | pIC50 [1]: 6.00 to 7.00
